Assay results as given in ChEMBL document CHEMBL1201862, “PubChem BioAssay data set” (2004).
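Five concentrations, 48 hours, 96-well plates. Abbreviation: GI50, concentration required for 50% inhibition of growth.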 Activity calls are given as the source filed them. Rule as the data show it: active = GI50 up to about 1.1 µM and inactive = higher.

Experiments:
Experiment in all cases: NCI tumour cell line growth inhibition, 48 h
[1] = tested on: SK-MEL-5
[2] = tested on: NCI-H23
[3] = tested on: KM12
[4] = tested on: SK-MEL-28
[5] = tested on: U-251
[6] = tested on: A549
[7] = tested on: OVCAR-5
[8] = tested on: HCC 2998
[9] = tested on: HCT-15
[10] = tested on: SF-295
[11] = tested on: 786-0
[12] = tested on: Hs-578T
[13] = tested on: OVCAR-3
[14] = tested on: HOP-62
[15] = tested on: NCI-H522
[16] = tested on: K562
[17] = tested on: NCI-H460
[18] = tested on: HL-60
[19] = tested on: HCT-116
[20] = tested on: SW-620
[21] = tested on: UACC-257
[22] = tested on: SN12C
[23] = tested on: MOLT-4
[24] = tested on: SF-268
[25] = tested on: SF-539
[26] = tested on: OVCAR-8
[27] = tested on: MCF7
[28] = tested on: SNB-75
[29] = tested on: TK-10
[30] = tested on: PC-3
[31] = tested on: NCI-H226
[32] = tested on: RPMI-8226
[33] = tested on: HT-29
[34] = tested on: SK-MEL-2
[35] = tested on: EKVX
[36] = tested on: SR
[37] = tested on: CCRF-CEM
[38] = tested on: Malme-3M
[39] = tested on: T47D
[40] = tested on: MDA-MB-435
[41] = tested on: UACC-62
[42] = tested on: OVCAR-4
[43] = tested on: MDA-N
[44] = tested on: LOX IMVI
[45] = tested on: HOP-92
[46] = tested on: M14
[47] = tested on: SNB-19
[48] = tested on: CAKI-1
[49] = tested on: DU-145
[50] = tested on: ACHN
[51] = tested on: UO-31
[52] = tested on: RXF 393
[53] = tested on: MDA-MB-231
[54] = tested on: A498
[55] = tested on: COLO 205

Structure (SMILES): Cc1ncc([N+](=O)[O-])n1CCNCCCn1ccnc1[N+](=O)[O-]
- GI50 [1]: > 100 µM (inactive)
- GI50 [2]: > 100 µM (inactive)
- GI50 [3]: > 100 µM (inactive)
- GI50 [4]: > 100 µM (inactive)
- GI50 [5]: > 100 µM (inactive)
- GI50 [6]: > 100 µM (inactive)
- GI50 [7]: 75.3 µM (inactive)
- GI50 [8]: > 100 µM (inactive)
- GI50 [9]: > 100 µM
- GI50 [10]: > 100 µM (inactive)
- GI50 [11]: > 100 µM (inactive)
- GI50 [12]: > 100 µM (inactive)
- GI50 [13]: > 100 µM (inactive)
- GI50 [14]: > 100 µM (inactive)
- GI50 [15]: > 100 µM (inactive)
- GI50 [16]: > 100 µM (inactive)
- GI50 [17]: > 100 µM (inactive)
- GI50 [18]: > 100 µM (inactive)
- GI50 [19]: > 100 µM (inactive)
- GI50 [20]: > 100 µM (inactive)
- GI50 [21]: > 100 µM (inactive)
- GI50 [22]: > 100 µM (inactive)
- GI50 [23]: > 100 µM (inactive)
- GI50 [24]: > 100 µM (inactive)
- GI50 [25]: > 100 µM (inactive)
- GI50 [26]: > 100 µM (inactive)
- GI50 [27]: > 100 µM (inactive)
- GI50 [28]: > 100 µM (inactive)
- GI50 [29]: 70.3 µM (inactive)
- GI50 [30]: > 100 µM (inactive)
- GI50 [31]: > 100 µM (inactive)
- GI50 [32]: > 100 µM (inactive)
- GI50 [33]: > 100 µM (inactive)
- GI50 [34]: > 100 µM (inactive)
- GI50 [35]: > 10 µM (inactive)
- GI50 [36]: > 100 µM (inactive)
- GI50 [37]: > 100 µM (inactive)
- GI50 [38]: > 100 µM (inactive)

Structure (SMILES): N=C(N)c1ccc(OCCCCCOc2ccc(C(=N)N)cc2)cc1
- GI50 [39]: 7.73 µM (inactive)
- GI50 [2]: 6.71 µM (inactive)
- GI50 [40]: 10.4 µM (inactive)
- GI50 [4]: 10.2 µM (inactive)
- GI50 [5]: 9.84 µM (inactive)
- GI50 [6]: 6.17 µM (inactive)
- GI50 [7]: 22.8 µM (inactive)
- GI50 [9]: 16.7 µM
- GI50 [11]: 13.4 µM (inactive)
- GI50 [12]: 11.5 µM (inactive)
- GI50 [13]: 15.5 µM (inactive)
- GI50 [14]: 16.1 µM (inactive)
- GI50 [15]: 6.44 µM (inactive)
- GI50 [16]: 1.92 µM (inactive)
- GI50 [41]: 11.5 µM (inactive)
- GI50 [17]: 3.08 µM (inactive)
- GI50 [18]: 15.3 µM (inactive)
- GI50 [19]: 14.4 µM (inactive)
- GI50 [22]: 7.06 µM (inactive)
- GI50 [24]: 12.5 µM (inactive)
- GI50 [26]: 7.85 µM (inactive)
- GI50 [27]: 5.31 µM (inactive)
- GI50 [42]: 11.2 µM (inactive)
- GI50 [43]: 11.2 µM (inactive)
- GI50 [44]: 12.7 µM (inactive)
- GI50 [45]: 32.6 µM (inactive)
- GI50 [46]: 15.2 µM (inactive)
- GI50 [29]: 13.6 µM (inactive)
- GI50 [30]: 12.1 µM (inactive)
- GI50 [47]: 15.7 µM (inactive)
- GI50 [34]: 17.3 µM (inactive)
- GI50 [35]: 18.1 µM (inactive)
- GI50 [48]: > 100 µM (inactive)
- GI50 [49]: 13.6 µM (inactive)
- GI50 [50]: 14.4 µM (inactive)
- GI50 [38]: 13.8 µM (inactive)

Structure (SMILES): COC(=O)c1onc(C2OC(C)(C)OC2C(O)COC(c2ccccc2)(c2ccccc2)c2ccccc2)c1C(=O)OC (stereo not drawn)
- GI50 [1]: > 100 µM (inactive)
- GI50 [39]: > 100 µM (inactive)
- GI50 [2]: 72.3 µM (inactive)
- GI50 [40]: 89.5 µM (inactive)
- GI50 [3]: > 100 µM (inactive)
- GI50 [4]: > 100 µM (inactive)
- GI50 [5]: > 100 µM (inactive)
- GI50 [51]: > 100 µM (inactive)
- GI50 [6]: > 100 µM (inactive)
- GI50 [7]: > 100 µM (inactive)
- GI50 [8]: > 100 µM (inactive)
- GI50 [9]: > 100 µM
- GI50 [11]: > 100 µM (inactive)
- GI50 [12]: > 100 µM (inactive)
- GI50 [13]: 87.5 µM (inactive)
- GI50 [52]: > 100 µM (inactive)
- GI50 [14]: > 100 µM (inactive)
- GI50 [15]: 65.8 µM (inactive)
- GI50 [16]: 72.8 µM (inactive)
- GI50 [41]: 43.6 µM (inactive)
- GI50 [18]: > 100 µM (inactive)
- GI50 [19]: > 100 µM (inactive)
- GI50 [20]: > 100 µM (inactive)
- GI50 [22]: > 100 µM (inactive)
- GI50 [23]: 29.4 µM (inactive)
- GI50 [24]: > 100 µM (inactive)
- GI50 [25]: > 100 µM (inactive)
- GI50 [26]: > 100 µM (inactive)
- GI50 [27]: > 100 µM (inactive)
- GI50 [53]: 71.8 µM (inactive)
- GI50 [42]: > 100 µM (inactive)
- GI50 [43]: > 100 µM (inactive)
- GI50 [54]: > 100 µM (inactive)
- GI50 [45]: > 100 µM (inactive)
- GI50 [46]: > 100 µM (inactive)
- GI50 [29]: > 100 µM (inactive)
- GI50 [30]: 44.7 µM (inactive)
- GI50 [31]: > 100 µM (inactive)
- GI50 [47]: > 100 µM (inactive)
- GI50 [32]: > 100 µM (inactive)
- GI50 [33]: > 100 µM (inactive)
- GI50 [34]: > 100 µM (inactive)
- GI50 [35]: 41.9 µM (inactive)
- GI50 [36]: 84.3 µM (inactive)
- GI50 [37]: > 100 µM (inactive)
- GI50 [49]: > 100 µM (inactive)
- GI50 [55]: > 100 µM (inactive)
- GI50 [50]: > 100 µM (inactive)
- GI50 [38]: > 100 µM (inactive)
